Legend:
gastric mucosa = assay: Ulcerogenic action on gastric mucosa after fourfold oral administration; assay type: in vivo, rats; details: for Average score (ulcerogenic action) / Average number of erosions / Average number of ulcers: 4 times orally; for Average score (ulcerogenic action): scale 0 (no damage) to 4 (gross damage); for Average number of erosions / Average number of ulcers: stomach 3 h after last administration
Experimental: Ulcerogenic action was measured using the following 4-point scale: 0—no damage; 0.5—slight hyperemia of gastric mucosa; 1—weak localized damage of gastric mucosa (single point bleeding, severe hyperemia); 2—weak distributed damage of gastric mucosa (small ulcers, erosions, multiple bleeding); 3—severe and distributed damage of gastric mucosa (erosions, ulcers, bleeding); 4—gross damage of the whole stomach (massive bleeding, erosion, ulcers, perforation).

[1] = rats, oral administration; cited from earlier work
[2] = tested on: adjuvant-induced rheumatoid arthritis; assay: Adjuvant-induced rheumatoid arthritis, inflammation severity by plethysmography; assay type: in vivo
Experimental: (§1) Anti-inflammatory and analgesic activity of MEI-based pharmaceutical composition after oral administration was studied in a model of chronic inflammation—adjuvant-induced rheumatoid arthritis in rats. To induce arthritis the rats were administered 100 mcl of complete Freund adjuvant (CFA), supplied by Sigma Aldrich, into the plantar surface of right hind paw. The control (intact) group 1 has received 100 mcl of saline. After CFA injection, local inflammation develops in a few hours, with subsequent pathologic changes in metacarpophalangeal joints and distal interphalangeal joints. Test compound (composition 3—MEI solution) and the reference drug (indomethacin) were administered once daily orally for 22 days, starting from 7th day after pathology induction. Test compound was administered in 6.25, 12.5 and 25 mg/kg doses. […] To assess the anti-inflammatory action of MEI in animals by pelthysmography, inflammation severity was measured as the difference between the masses of control and test paws, expressed in ml. Analgesic activity of MEI in animals was assessed by tactile reactivity threshold using the method of Chaplan et al. using the kit of 8 standard von Frey hairs (Stoelting, USA).

yeast-induced fever = assay: Yeast-induced fever (antipyretic activity); assay type: in vivo, rats (Sprague Dawley); details: n = 6
Experimental: Antipyretic activity of MEI-based pharmaceutical composition was studied in a model of yeast-induced fever in rats. Rats of Sprague Dawley stock were used. Fever was induced in rats by subcutaneous administration of baker's yeast suspension in 2000 mg/kg dose (calculated for dry yeast basis) in 2 ml volume into the animal withers 18 hours before test compound administration. Animal body temperature was measured using an electronic rectal thermometer (MLT1403 Rectal Temperature Probe and PowerLab 4/35 4-channel registration system module, ADlnstruments PtyLtd, Australia). Temperature was measured before yeast administration and 18 h after yeast administration. Afterwards the animals were administered the test compound, MEI-based pharmaceutical composition (composition 3—MEI solution, produced as described in Example 3) in 25, 50 and 100 mg/kg doses. Indomethacin in 10 mg/kg dose was used as a reference drug. Animals in control group have received the vehicle. Temperature was measured 2 and 4 hours after test compound administration.

[3] = Pharmacokinetics: indomethacin in blood plasma after oral administration; assay type: in vivo, rats (Sprague Dawley); details: 25 mg/kg
Experimental: Pharmacokinetic properties of two MEI-based compositions were studied: composition 1 (liposome-encapsulated MEI), produced as described in example 1, and composition 3 (MEI solution), produced as described in example 3. MEI substance (as a suspension in starch solution) and indomethacin were used as reference drugs. Rats of Sprague Dawley stock were used. All test compounds were administered orally to rats in 25 mg/kg dose. Animal blood was sampled at certain time points (0; 0.25; 0.5; 1, 2, 4, 8, 16 and 24 hours) for analysis. Indomethacin content in animal blood plasma was determined using high-performance liquid chromatography (HPLC) method.

serotonin-induced edema = assay: Serotonin-induced paw edema (acute inflammation); assay type: in vivo, rats (Sprague Dawley); details: oral; for Inflammation inhibition index: 2 h before serotonin, 30 min after serotonin, n = 8
Experimental: Anti-inflammatory activity of MEI-based pharmaceutical compositions compared to MEI substance (as a suspension in starch solution) and indomethacin after oral administration was studied in a model of acute inflammation-paw edema induced by inflammation mediator serotonin. Rats of Sprague Dawley stock were used. […] Test compounds were administered orally 2 hours before the serotonin administration. […] Inflammation severity was measured by plethyosmography as the difference between the masses of control and test paws, expressed in ml. Anti-inflammatory activity of the test compounds was assessed by the inhibition index, calculated using the following formula: II=(([…])×100%, where II-inflammation inhibition index in %; Set-severity of inflammation in the control group, ml; St-severity of inflammation in the test group, ml.

[4] = tested on: adjuvant-induced rheumatoid arthritis; assay: Adjuvant-induced rheumatoid arthritis, tactile reactivity threshold (von Frey hairs); assay type: in vivo, rats
Experimental: as §1

[5] = tested on: carrageenan-induced edema; assay: Carrageenan-induced edema, intraperitoneal administration; assay type: in vivo, rats (Sprague Dawley); details: after 4 h
Experimental: Anti-inflammatory activity of MEI-based pharmaceutical composition after parenteral administration was studied in a model of carrageenan-induced edema. Rats of Sprague Dawley stock were used. 50 mcl of saline (“sodium chloride 0.9% solution for infusion”, NPK ESCOM, Russia) was injected intraplantarly into one hind paw (control paw), while 50 mcl of 1% λ-carrageenan solution was injected into another paw.
Inflammation severity was measured after 4 h using a plethysmometer (IITC Life Science, USA). Inflammation severity was measured by plethyosmography as the difference between the masses of control and test paws, expressed in ml. Test compound, pharmaceutical composition […] (MEI solution) was administered parenterally (intraperitoneally) 1 hour before λ-carrageenan administration, animals receiving the same amount of the vehicle were used as control. The animals were deprived of food 24 h before the study, water access was not limited.

[6] = 1 mg/kg oral once daily from day 7, day 21
[7] = 1 mg/kg oral once daily from day 7, day 28
[8] = 1 mg/kg oral once daily, day 7 (before test compound administration)
[9] = MEI-based composition 100 mg/kg
[10] = composition 3 (MEI solution) 6.25 mg/kg oral once daily from day 7, day 21
[11] = composition 3 (MEI solution) 6.25 mg/kg oral once daily from day 7, day 28
[12] = composition 3 (MEI solution) 6.25 mg/kg oral once daily, day 7 (before test compound administration)
[13] = composition 3 (MEI solution) 12.5 mg/kg oral once daily from day 7, day 21
[14] = composition 3 (MEI solution) 12.5 mg/kg oral once daily from day 7, day 28
[15] = composition 3 (MEI solution) 12.5 mg/kg oral once daily, day 7 (before test compound administration)
[16] = composition 3 (MEI solution) 25 mg/kg oral once daily from day 7, day 21
[17] = composition 3 (MEI solution) 25 mg/kg oral once daily from day 7, day 28
[18] = composition 3 (MEI solution) 25 mg/kg oral once daily, day 7 (before test compound administration)
[19] = composition 3 (MEI solution) 25 mg/kg oral
[20] = composition 3 (MEI solution) 50 mg/kg oral
[21] = composition 3 (MEI solution) 100 mg/kg oral

## COc1ccc2c(c1)c(CC(=O)O)c(C)n2C(=O)c1ccc(Cl)cc1 [Indomethacin, 1-(4-chlorobenzoyl)-5-methoxy-2-methyl-1H-indole-3-acetic acid]
Gastric mucosa; 5 mg/kg
  Average score (ulcerogenic action): 3
  Average number of erosions: 3.2
  Average number of ulcers: 8
Gastric mucosa; four 5 mg/kg doses, oral
  gastric mucosa findings: multiple ulcers and erosions
[1]
  LD50: less than 15 mg/kg
[2]; 1 mg/kg oral once daily from day 7, day 14
  inflammation severity: 1.8 ± 0.24 mL
[2]; [6]
  inflammation severity: 1.5 ± 0.18 mL
[2]; [7]
  inflammation severity: 1.4 ± 0.28 mL
[2]; [8]
  inflammation severity: 3.0 ± 0.59 mL
[2]; 5 mg/kg, oral once daily, arthritis model
  animal mortality: animal mortality is observed
yeast-induced fever; 10 mg/kg
  Average body temperature 2 h after test compound administration: −0.98 °C
  Average body temperature 4 h after test compound administration: −0.85 °C
[3]; Sprague-Dawley, rat blood plasma, read-out: time of reaching the maximal concentration (Tmax) of indomethacin
  Tmax: 4 h
[3]; Sprague-Dawley, rat, plasma, indomethacin measured by HPLC, read-out: maximal concentration of indomethacin in rat blood plasma (Cmax)
  Cmax: 65.5 µg/mL
serotonin-induced edema; 10 mg/kg
  Inflammation inhibition index: 43.5%
[4]; [6]
  median-effective tactile reactivity threshold in an injected limb: 14.5 ± 3.18 g
[4]; [7]
  median-effective tactile reactivity threshold in an injected limb: 16.0 ± 3.04 g
[4]; [8]
  median-effective tactile reactivity threshold in an injected limb: 9.9 ± 2.34 g

## COc1ccc2c(c1)c(CC(=O)OC1CC(C)CCC1C(C)C)c(C)n2C(=O)c1ccc(Cl)cc1 (stereo not shown) [MEI]
Gastric mucosa; MEI-based composition 25 mg/kg
  Average score (ulcerogenic action): 0
  Average number of erosions: 0
  Average number of ulcers: 0
Gastric mucosa; MEI-based composition 50 mg/kg
  Average score (ulcerogenic action): 0
  Average number of erosions: 0
  Average number of ulcers: 0
Gastric mucosa; [9]
  Average score (ulcerogenic action): 0.4
  Average number of erosions: 0
  Average number of ulcers: 0.8
[5]; composition No 4 (MEI solution) 0.1 mg/kg intraperitoneally 1 h before carrageenan
  Edema size: 1.011 ± 0.115 mL
[5]; composition No 4 (MEI solution) 0.1 mg/kg intraperitoneally
  Edema size, % from control: 91.2 % from control
[5]; composition No 4 (MEI solution) 0.5 mg/kg intraperitoneally 1 h before carrageenan
  Edema size: 0.675 ± 0.065 mL
[5]; composition No 4 (MEI solution) 0.5 mg/kg intraperitoneally
  Edema size, % from control: 60.9 % from control
[5]; composition No 4 (MEI solution) 1.0 mg/kg intraperitoneally 1 h before carrageenan
  Edema size: 0.552 ± 0.097 mL
[5]; composition No 4 (MEI solution) 1.0 mg/kg intraperitoneally
  Edema size, % from control: 45.0 % from control
[5]; composition No 4 (MEI solution) 10 mg/kg intraperitoneally 1 h before carrageenan
  Edema size: 0.201 ± 0.176 mL
[5]; composition No 4 (MEI solution) 10 mg/kg intraperitoneally
  Edema size, % from control: 18.1 % from control
[5]; composition No 4 (MEI solution) 50 mg/kg intraperitoneally 1 h before carrageenan
  Edema size: 0.288 ± 0.152 mL
[5]; composition No 4 (MEI solution) 50 mg/kg intraperitoneally
  Edema size, % from control: 26.0 % from control
[2]; composition 3 (MEI solution) 6.25 mg/kg oral once daily from day 7, day 14
  inflammation severity: 2.5 ± 0.76 mL
[2]; [10]
  inflammation severity: 1.8 ± 0.49 mL
[2]; [11]
  inflammation severity: 1.9 ± 0.51 mL
[2]; [12]
  inflammation severity: 2.8 ± 0.54 mL
[2]; composition 3 (MEI solution) 12.5 mg/kg oral once daily from day 7, day 14
  inflammation severity: 1.9 ± 0.37 mL
[2]; [13]
  inflammation severity: 2.0 ± 0.40 mL
[2]; [14]
  inflammation severity: 1.1 ± 0.21 mL
[2]; [15]
  inflammation severity: 2.6 ± 0.38 mL
[2]; composition 3 (MEI solution) 25 mg/kg oral once daily from day 7, day 14
  inflammation severity: 1.5 ± 0.22 mL
[2]; [16]
  inflammation severity: 0.9 ± 0.07 mL
[2]; [17]
  inflammation severity: 0.8 ± 0.12 mL
[2]; [18]
  inflammation severity: 2.4 ± 0.43 mL
yeast-induced fever; [19]
  Average body temperature 2 h after test compound administration: −0.53 °C
  Average body temperature 4 h after test compound administration: −0.45 °C
yeast-induced fever; [20]
  Average body temperature 2 h after test compound administration: −0.93 °C
  Average body temperature 4 h after test compound administration: −0.82 °C
yeast-induced fever; [21]
  Average body temperature 2 h after test compound administration: −0.78 °C
  Average body temperature 4 h after test compound administration: −0.68 °C
[3]; suspension in starch solution, any time point 0-24 h
  indomethacin concentration in blood plasma: below the detection limit
serotonin-induced edema; 25 mg/kg
  anti-inflammatory effect in model of acute inflammation: doesn't have significant anti-inflammatory effects
serotonin-induced edema; 25 mg/kg active agent
  Inflammation inhibition index: 4.3%
[4]; [10]
  median-effective tactile reactivity threshold in an injected limb: 10.4 ± 3.09 g
[4]; [11]
  median-effective tactile reactivity threshold in an injected limb: 9.6 ± 2.67 g
[4]; [12]
  median-effective tactile reactivity threshold in an injected limb: 11.7 ± 2.93 g
[4]; [13]
  median-effective tactile reactivity threshold in an injected limb: 13.3 ± 2.55 g
[4]; [14]
  median-effective tactile reactivity threshold in an injected limb: 14.8 ± 2.35 g
[4]; [15]
  median-effective tactile reactivity threshold in an injected limb: 11.8 ± 3.12 g
[4]; [16]
  median-effective tactile reactivity threshold in an injected limb: 16.6 ± 2.64 g
[4]; [17]
  median-effective tactile reactivity threshold in an injected limb: 18.2 ± 2.57 g
[4]; [18]
  median-effective tactile reactivity threshold in an injected limb: 9.8 ± 2.14 g
